Data published in US11608323B2 (SYNGENTA LIMITED, priority 2013, dated 2023).

Legend:
Type in all cases: in vivo
ECHCG [1] = assay: Post-emergence herbicidal activity, glasshouse pot test; conditions: Echinochloa crus-galli; application post-emergence; rate 1000 g/Ha; evaluated after 13 days
Procedure, shortened: (§1)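 Visual herbicidal injury (0 = no damage, 5 = plant killed) recorded 13 days post-treatment. Treatment consisted of a single spray onto emerged seedlings at day 8; conditions before and after were 24/16 °C, 14 h light, 65% humidity.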

SETFA [2] = assay: as above; conditions: Setaria faberi; application post-emergence; rate 1000 g/Ha; evaluated after 13 days
Procedure, shortened: as §1

ABUTH [3] = assay: as above; conditions: Abutilon theophrasti; application post-emergence; rate 1000 g/Ha; evaluated after 13 days
Procedure, shortened: as §1

ZEAMX [4] = assay: as above; conditions: Zea mays; application post-emergence; rate 1000 g/Ha; evaluated after 13 days
Procedure, shortened: as §1

ALOMY [5] = assay: as above; conditions: Alopecurus myosuroides; application post-emergence; rate 1000 g/Ha; evaluated after 13 days
Procedure, shortened: as §1

AMARE [6] = assay: as above; conditions: Amaranthus retroflexus; application post-emergence; rate 1000 g/Ha; evaluated after 13 days
Procedure, shortened: as §1

ECHCG [7] = assay: Pre-emergence herbicidal activity, glasshouse pot test; conditions: rate 1000 g/Ha, evaluated after 13 days, scale 0-5
Procedure, shortened: (§2)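 Seeds sown in standard soil in pots, held one day in glasshouse (24/16 °C day/night, 14 h light, 65% humidity), then sprayed with aqueous solution of compound formulated in acetone/water 50:50 with 0.5% Tween 20. Grown on under same conditions, watered twice daily; damage scored after 13 days (0 = none, 5 = total).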

SETFA [8] = assay: as above; conditions: rate 1000 g/Ha, evaluated after 13 days, scale 0-5
Procedure, shortened: as §2

ABUTH [9] = assay: as above; conditions: rate 1000 g/Ha, evaluated after 13 days, scale 0-5
Procedure, shortened: as §2

ZEAMX [10] = assay: as above; conditions: rate 1000 g/Ha, evaluated after 13 days, scale 0-5
Procedure, shortened: as §2

ALOMY [11] = assay: as above; conditions: rate 1000 g/Ha, evaluated after 13 days, scale 0-5
Procedure, shortened: as §2

AMARE [12] = assay: as above; conditions: rate 1000 g/Ha, evaluated after 13 days, scale 0-5
Procedure, shortened: as §2

## CON1C(=O)N(c2cc(C(F)(F)F)ccn2)C(O)[C@H]1C (mixture of isomers) [Compound A4, (4R,5R)-4-hydroxy-1-methoxy-5-methyl-3-[4-(trifluoromethyl)-2-pyridyl]imidazolidin-2-one and (4S,5R)-4-hydroxy-1-methoxy-5-methyl-3-[4-(trifluoromethyl)-2-pyridyl]imidazolidin-2-one]
ECHCG [1]
  Post-emergence herbicidal activity ECHCG (damage score 0-5): 5
SETFA [2]
  Post-emergence herbicidal activity SETFA (damage score 0-5): 5
ABUTH [3]
  Post-emergence herbicidal activity ABUTH (damage score 0-5): 5
ZEAMX [4]
  Post-emergence herbicidal activity ZEAMX (damage score 0-5): 5
ALOMY [5]
  Post-emergence herbicidal activity ALOMY (damage score 0-5): 5
AMARE [6]
  Post-emergence herbicidal activity AMARE (damage score 0-5): 5
ECHCG [7]
  ECHCG damage score, application pre-emergence: 5
SETFA [8]
  SETFA damage score, application pre-emergence: 5
ABUTH [9]
  ABUTH damage score, application pre-emergence: 5
ZEAMX [10]
  ZEAMX damage score, application pre-emergence: 3
ALOMY [11]
  ALOMY damage score, application pre-emergence: 4
AMARE [12]
  AMARE damage score, application pre-emergence: 5

## COc1cncc(-c2cnc(N3C(=O)N(C)C(C)C3O)cc2C(F)(F)F)c1 (stereo not drawn) [Compound A20]
ECHCG [1]
  Post-emergence herbicidal activity ECHCG (damage score 0-5): 5
SETFA [2]
  Post-emergence herbicidal activity SETFA (damage score 0-5): 5
ABUTH [3]
  Post-emergence herbicidal activity ABUTH (damage score 0-5): 5
ZEAMX [4]
  Post-emergence herbicidal activity ZEAMX (damage score 0-5): 4
ALOMY [5]
  Post-emergence herbicidal activity ALOMY (damage score 0-5): 5
AMARE [6]
  Post-emergence herbicidal activity AMARE (damage score 0-5): 5
ECHCG [7]
  ECHCG damage score, application pre-emergence: 4
SETFA [8]
  SETFA damage score, application pre-emergence: 5
ABUTH [9]
  ABUTH damage score, application pre-emergence: 5
ZEAMX [10]
  ZEAMX damage score, application pre-emergence: 5
ALOMY [11]
  ALOMY damage score, application pre-emergence: 4
AMARE [12]
  AMARE damage score, application pre-emergence: 5

## CC(C)OC1C(O)N(c2cc(C(F)(F)F)ccn2)C(=O)N1C (stereo not drawn) [Compound A48]
ECHCG [1]
  Post-emergence herbicidal activity ECHCG (damage score 0-5): 4
SETFA [2]
  Post-emergence herbicidal activity SETFA (damage score 0-5): 4
ABUTH [3]
  Post-emergence herbicidal activity ABUTH (damage score 0-5): 5
ZEAMX [4]
  Post-emergence herbicidal activity ZEAMX (damage score 0-5): 1
ALOMY [5]
  Post-emergence herbicidal activity ALOMY (damage score 0-5): 4
AMARE [6]
  Post-emergence herbicidal activity AMARE (damage score 0-5): 5
ECHCG [7]
  ECHCG damage score, application pre-emergence: 1
SETFA [8]
  SETFA damage score, application pre-emergence: 3
ABUTH [9]
  ABUTH damage score, application pre-emergence: 5
ZEAMX [10]
  ZEAMX damage score, application pre-emergence: 1
ALOMY [11]
  ALOMY damage score, application pre-emergence: 4
AMARE [12]
  AMARE damage score, application pre-emergence: 5

## CCOC1C(O)N(c2cc(C(C)(F)F)ccn2)C(=O)N1C (stereo not drawn) [Compound A59]
ECHCG [1]
  Post-emergence herbicidal activity ECHCG (damage score 0-5): 5
SETFA [2]
  Post-emergence herbicidal activity SETFA (damage score 0-5): 5
ABUTH [3]
  Post-emergence herbicidal activity ABUTH (damage score 0-5): 5
ZEAMX [4]
  Post-emergence herbicidal activity ZEAMX (damage score 0-5): 4
ALOMY [5]
  Post-emergence herbicidal activity ALOMY (damage score 0-5): 5
AMARE [6]
  Post-emergence herbicidal activity AMARE (damage score 0-5): 5
ECHCG [7]
  ECHCG damage score, application pre-emergence: 3
SETFA [8]
  SETFA damage score, application pre-emergence: 3
ABUTH [9]
  ABUTH damage score, application pre-emergence: 5
ZEAMX [10]
  ZEAMX damage score, application pre-emergence: 1
ALOMY [11]
  ALOMY damage score, application pre-emergence: 4
AMARE [12]
  AMARE damage score, application pre-emergence: 5

## CON1C(=O)N(c2cc(C(F)(F)F)ccn2)C(O)[C@@H]1C (mixture of isomers) [Compound A3, (4R,5S)-4-hydroxy-1-methoxy-5-methyl-3-[4-(trifluoromethyl)-2-pyridyl]imidazolidin-2-one and (4S,5S)-4-hydroxy-1-methoxy-5-methyl-3-[4-(trifluoromethyl)-2-pyridyl]imidazolidin-2-one]
ECHCG [1]
  Post-emergence herbicidal activity ECHCG (damage score 0-5): 5
SETFA [2]
  Post-emergence herbicidal activity SETFA (damage score 0-5): 5
ABUTH [3]
  Post-emergence herbicidal activity ABUTH (damage score 0-5): 5
ZEAMX [4]
  Post-emergence herbicidal activity ZEAMX (damage score 0-5): 5
ALOMY [5]
  Post-emergence herbicidal activity ALOMY (damage score 0-5): 5
AMARE [6]
  Post-emergence herbicidal activity AMARE (damage score 0-5): 5
ECHCG [7]
  ECHCG damage score, application pre-emergence: 5
SETFA [8]
  SETFA damage score, application pre-emergence: 5
ABUTH [9]
  ABUTH damage score, application pre-emergence: 4
ZEAMX [10]
  ZEAMX damage score, application pre-emergence: 3
ALOMY [11]
  ALOMY damage score, application pre-emergence: 3
AMARE [12]
  AMARE damage score, application pre-emergence: 5

## COc1ccc(-c2cnc(N3C(=O)N(C)C(C)C3O)cc2C(F)(F)F)cn1 (stereo not drawn) [Compound A21]
ECHCG [1]
  Post-emergence herbicidal activity ECHCG (damage score 0-5): 5
SETFA [2]
  Post-emergence herbicidal activity SETFA (damage score 0-5): 5
ABUTH [3]
  Post-emergence herbicidal activity ABUTH (damage score 0-5): 5
ZEAMX [4]
  Post-emergence herbicidal activity ZEAMX (damage score 0-5): 3
ALOMY [5]
  Post-emergence herbicidal activity ALOMY (damage score 0-5): 5
AMARE [6]
  Post-emergence herbicidal activity AMARE (damage score 0-5): 5
ECHCG [7]
  ECHCG damage score, application pre-emergence: 5
SETFA [8]
  SETFA damage score, application pre-emergence: 5
ABUTH [9]
  ABUTH damage score, application pre-emergence: 5
ZEAMX [10]
  ZEAMX damage score, application pre-emergence: 2
ALOMY [11]
  ALOMY damage score, application pre-emergence: 3
AMARE [12]
  AMARE damage score, application pre-emergence: 5

## COCC1C(O)N(c2cc(C(F)(F)F)ccn2)C(=O)N1C (racemic) [Compound A54]
ECHCG [1]
  Post-emergence herbicidal activity ECHCG (damage score 0-5): 5
SETFA [2]
  Post-emergence herbicidal activity SETFA (damage score 0-5): 5
ABUTH [3]
  Post-emergence herbicidal activity ABUTH (damage score 0-5): 5
ZEAMX [4]
  Post-emergence herbicidal activity ZEAMX (damage score 0-5): 4
ALOMY [5]
  Post-emergence herbicidal activity ALOMY (damage score 0-5): 5
AMARE [6]
  Post-emergence herbicidal activity AMARE (damage score 0-5): 5
ECHCG [7]
  ECHCG damage score, application pre-emergence: 2
SETFA [8]
  SETFA damage score, application pre-emergence: 2
ABUTH [9]
  ABUTH damage score, application pre-emergence: 5
ZEAMX [10]
  ZEAMX damage score, application pre-emergence: 0
ALOMY [11]
  ALOMY damage score, application pre-emergence: 3
AMARE [12]
  AMARE damage score, application pre-emergence: 5

## CON1C(=O)N(c2cc(C(F)(F)F)c(Br)cn2)C(O)C1C (single isomer, unassigned) [Compound A55]
ECHCG [1]
  Post-emergence herbicidal activity ECHCG (damage score 0-5): 5
SETFA [2]
  Post-emergence herbicidal activity SETFA (damage score 0-5): 5
ABUTH [3]
  Post-emergence herbicidal activity ABUTH (damage score 0-5): 5
ZEAMX [4]
  Post-emergence herbicidal activity ZEAMX (damage score 0-5): 4
ALOMY [5]
  Post-emergence herbicidal activity ALOMY (damage score 0-5): 5
AMARE [6]
  Post-emergence herbicidal activity AMARE (damage score 0-5): 5
ECHCG [7]
  ECHCG damage score, application pre-emergence: 4
SETFA [8]
  SETFA damage score, application pre-emergence: 4
ABUTH [9]
  ABUTH damage score, application pre-emergence: 5
ZEAMX [10]
  ZEAMX damage score, application pre-emergence: 2
ALOMY [11]
  ALOMY damage score, application pre-emergence: 4
AMARE [12]
  AMARE damage score, application pre-emergence: 5

## CN1C(=O)N(c2cc(C(F)(F)F)ccn2)C(O)C1CO (stereo not drawn) [Compound A43]
ECHCG [1]
  Post-emergence herbicidal activity ECHCG (damage score 0-5): 5
SETFA [2]
  Post-emergence herbicidal activity SETFA (damage score 0-5): 0
ABUTH [3]
  Post-emergence herbicidal activity ABUTH (damage score 0-5): 5
ZEAMX [4]
  Post-emergence herbicidal activity ZEAMX (damage score 0-5): 2
ALOMY [5]
  Post-emergence herbicidal activity ALOMY (damage score 0-5): 1
AMARE [6]
  Post-emergence herbicidal activity AMARE (damage score 0-5): 1
ECHCG [7]
  ECHCG damage score, application pre-emergence: 1
SETFA [8]
  SETFA damage score, application pre-emergence: 2
ABUTH [9]
  ABUTH damage score, application pre-emergence: 5
ZEAMX [10]
  ZEAMX damage score, application pre-emergence: 0
ALOMY [11]
  ALOMY damage score, application pre-emergence: 1
AMARE [12]
  AMARE damage score, application pre-emergence: 2

## CCOC1C(OC(=O)[C@@H](C)c2ccc(CC(C)C)cc2)N(c2cc(C(F)(F)F)ccn2)C(=O)N1C (stereo partly drawn) [Compound A99]
ECHCG [1]
  Post-emergence herbicidal activity ECHCG (damage score 0-5): 3
SETFA [2]
  Post-emergence herbicidal activity SETFA (damage score 0-5): 0
ABUTH [3]
  Post-emergence herbicidal activity ABUTH (damage score 0-5): 1
ZEAMX [4]
  Post-emergence herbicidal activity ZEAMX (damage score 0-5): 1
ALOMY [5]
  Post-emergence herbicidal activity ALOMY (damage score 0-5): 0
AMARE [6]
  Post-emergence herbicidal activity AMARE (damage score 0-5): 5
ECHCG [7]
  ECHCG damage score, application pre-emergence: 0
SETFA [8]
  SETFA damage score, application pre-emergence: 0
ABUTH [9]
  ABUTH damage score, application pre-emergence: 1
ZEAMX [10]
  ZEAMX damage score, application pre-emergence: 0
ALOMY [11]
  ALOMY damage score, application pre-emergence: 0
AMARE [12]
  AMARE damage score, application pre-emergence: 5
